Assay results published in ChEMBL document CHEMBL1240391, “High prevalence of ST131 isolates producing CTX-M-15 and CTX-M-14 among extended-spectrum-beta-lactamase-producing Escherichia coli isolates from Canada” (2010).

Experiments:
Format in all cases: functional
Escherichia coli [1] = assay: Antimicrobial activity against CTX-M15/CTX-M14 ESBL producing Escherichia coli ST131 clonal complex isolate assessed as nonsusceptible isolates by CLSI method
Escherichia coli [2] = assay: Antimicrobial activity against Escherichia coli assessed as nonsusceptible isolates by CLSI method
Escherichia coli [3] = assay: Antimicrobial activity against ESBL producing Escherichia coli assessed as nonsusceptible isolates by CLSI method

Molecule	Activity (Escherichia coli [1]) [%]	Activity (Escherichia coli [2]) [%]	Activity (Escherichia coli [3]) [%]
NCC[C@H](O)C(=O)N[C@@H]1C[C@H](N)[C@@H](O[C@H]2O[C@H](CN)[C@@H](O)[C@H](O)[C@H]2O)[C@H](O)[C@H]1O[C@H]1O[C@H](CO)[C@@H](O)[C@H](N)[C@H]1O [AMIKACIN]	45	39	35
O=C1CN(/N=C/c2ccc([N+](=O)[O-])o2)C(=O)N1 [NITROFURANTOIN]	4	8	12
NC[C@H]1O[C@H](O[C@H]2[C@H](O)[C@@H](O[C@H]3O[C@H](CO)[C@@H](O)[C@H](N)[C@H]3O)[C@H](N)C[C@@H]2N)[C@H](N)C[C@@H]1O [TOBRAMYCIN]	93	69	49
GENTAMICIN	67	50	35
